Laboratory results from the NIST ThermoML archive (doi:10.1021/je700260f).
± gives the expanded uncertainty stated by the source.

Details: 303.15 K, Liquid, Vibrating tube method

FC(C(F)(F)F)C(F)(F)F [1,1,1,2,3,3,3-heptafluoropropane]
Details	mass density [kg/m3]
1945 kPa	1378.6 ± 1.5
1968 kPa	1378.8 ± 1.5
1989 kPa	1379 ± 1.5
2014 kPa	1379.2 ± 1.5
2041 kPa	1379.4 ± 1.5
2063 kPa	1379.7 ± 1.5
2084 kPa	1379.7 ± 1.5
2105 kPa	1379.8 ± 1.5
2131 kPa	1380.1 ± 1.5
2283 kPa	1381.5 ± 1.5
2308 kPa	1381.6 ± 1.5
2332 kPa	1381.8 ± 1.5
2353 kPa	1381.9 ± 1.5
2378 kPa	1382.2 ± 1.5
2402 kPa	1382.4 ± 1.5
2418 kPa	1382.4 ± 1.5
2439 kPa	1382.6 ± 1.5
2461 kPa	1382.7 ± 1.5
2482 kPa	1383 ± 1.5
2510 kPa	1383.4 ± 1.5
2528 kPa	1383.3 ± 1.5
2552 kPa	1383.4 ± 1.5
2569 kPa	1383.6 ± 1.5
2591 kPa	1383.8 ± 1.5
2607 kPa	1384 ± 1.5
2632 kPa	1384.1 ± 1.5
2651 kPa	1384.2 ± 1.5
2673 kPa	1384.4 ± 1.5
2695 kPa	1384.5 ± 1.5
2718 kPa	1384.7 ± 1.5
2737 kPa	1384.9 ± 1.5
2762 kPa	1385 ± 1.5
3000 kPa	1387 ± 1.5
3022 kPa	1387.1 ± 1.5
3068 kPa	1387.5 ± 1.5
3088 kPa	1387.7 ± 1.5
3114 kPa	1387.8 ± 1.5
3136 kPa	1387.9 ± 1.5
3203 kPa	1388.6 ± 1.5
3222 kPa	1388.8 ± 1.5
3271 kPa	1389 ± 1.5
3293 kPa	1389.2 ± 1.5
3319 kPa	1389.4 ± 1.5
3357 kPa	1389.6 ± 1.5
3383 kPa	1389.8 ± 1.5
3402 kPa	1390.2 ± 1.5
3428 kPa	1390.3 ± 1.5
3448 kPa	1390.3 ± 1.5
3471 kPa	1390.4 ± 1.5
3498 kPa	1390.7 ± 1.5
3521 kPa	1390.8 ± 1.5
3541 kPa	1391.2 ± 1.5
3568 kPa	1391.4 ± 1.5
3587 kPa	1391.3 ± 1.5
3614 kPa	1391.6 ± 1.5
3637 kPa	1391.7 ± 1.5
3667 kPa	1391.9 ± 1.5
3690 kPa	1392.1 ± 1.5
3714 kPa	1392.2 ± 1.5
3735 kPa	1392.5 ± 1.5
3765 kPa	1392.7 ± 1.5
3789 kPa	1393 ± 1.5
3820 kPa	1393 ± 1.5
3844 kPa	1393.3 ± 1.5
3875 kPa	1393.5 ± 1.5
3902 kPa	1393.7 ± 1.5
3919 kPa	1393.8 ± 1.5
3940 kPa	1394 ± 1.5
3964 kPa	1394.2 ± 1.5
3991 kPa	1394.5 ± 1.5
4022 kPa	1394.6 ± 1.5
4050 kPa	1394.7 ± 1.5
4072 kPa	1395 ± 1.5
4099 kPa	1395.1 ± 1.5
4123 kPa	1395.3 ± 1.5
4147 kPa	1395.5 ± 1.5
4168 kPa	1395.6 ± 1.5
4189 kPa	1395.8 ± 1.5
4217 kPa	1396 ± 1.5
4249 kPa	1396.3 ± 1.5
4273 kPa	1396.5 ± 1.5
4290 kPa	1396.4 ± 1.5
4416 kPa	1397.5 ± 1.5
4444 kPa	1397.6 ± 1.5
4466 kPa	1397.8 ± 1.5
4497 kPa	1397.9 ± 1.5
4524 kPa	1398 ± 1.5
4552 kPa	1398.4 ± 1.5
4582 kPa	1398.6 ± 1.5
4611 kPa	1398.9 ± 1.5
4633 kPa	1399.1 ± 1.5
4659 kPa	1399.4 ± 1.5
4684 kPa	1399.2 ± 1.5
4710 kPa	1399.5 ± 1.5
4735 kPa	1399.6 ± 1.5
4765 kPa	1399.9 ± 1.5
4788 kPa	1400 ± 1.5
4811 kPa	1400.2 ± 1.5
4875 kPa	1400.6 ± 1.5
4904 kPa	1400.9 ± 1.5
4933 kPa	1401.1 ± 1.5
4958 kPa	1401.2 ± 1.5
4984 kPa	1401.4 ± 1.5
5013 kPa	1401.5 ± 1.5
5035 kPa	1401.8 ± 1.5
5060 kPa	1401.7 ± 1.5
5082 kPa	1402.2 ± 1.5
5116 kPa	1402.4 ± 1.5
5146 kPa	1402.4 ± 1.5
5172 kPa	1402.6 ± 1.5
5194 kPa	1402.8 ± 1.5
5221 kPa	1403 ± 1.5
5239 kPa	1403 ± 1.5
5261 kPa	1403.2 ± 1.5
5286 kPa	1403.5 ± 1.5
5308 kPa	1403.6 ± 1.5
5335 kPa	1403.7 ± 1.5
5356 kPa	1403.9 ± 1.5
5379 kPa	1404 ± 1.5
5405 kPa	1404.1 ± 1.5
5427 kPa	1404.4 ± 1.5
5457 kPa	1404.7 ± 1.5
5479 kPa	1404.8 ± 1.5
5509 kPa	1405 ± 1.5
5546 kPa	1405.2 ± 1.5
5568 kPa	1405.3 ± 1.5
5609 kPa	1405.6 ± 1.5
5635 kPa	1405.8 ± 1.5
5654 kPa	1405.9 ± 1.5
5688 kPa	1406.2 ± 1.5
5715 kPa	1406.3 ± 1.5
5738 kPa	1406.4 ± 1.5
5768 kPa	1406.6 ± 1.5
5795 kPa	1406.8 ± 1.5
5829 kPa	1407.1 ± 1.5
5856 kPa	1407.3 ± 1.5
5879 kPa	1407.3 ± 1.5
5906 kPa	1407.7 ± 1.5
5934 kPa	1407.9 ± 1.5
5957 kPa	1408 ± 1.5
5980 kPa	1408.2 ± 1.5
6003 kPa	1408.2 ± 1.5
6033 kPa	1408.4 ± 1.5
6056 kPa	1408.6 ± 1.5
6080 kPa	1408.8 ± 1.5
6108 kPa	1408.9 ± 1.5
6135 kPa	1409 ± 1.5
6167 kPa	1409.2 ± 1.5
6186 kPa	1409.4 ± 1.5
6217 kPa	1409.6 ± 1.5
6240 kPa	1409.7 ± 1.5
6272 kPa	1409.9 ± 1.5
6300 kPa	1410.1 ± 1.5
6332 kPa	1410.3 ± 1.5
6356 kPa	1410.5 ± 1.5
6382 kPa	1410.7 ± 1.5
6413 kPa	1410.8 ± 1.5
6441 kPa	1411.1 ± 1.5
6469 kPa	1411.1 ± 1.5
6493 kPa	1411.3 ± 1.5
6529 kPa	1411.6 ± 1.5
6556 kPa	1411.7 ± 1.5
6581 kPa	1411.9 ± 1.5
6617 kPa	1412.2 ± 1.5
6647 kPa	1412.4 ± 1.5
6675 kPa	1412.6 ± 1.5
6699 kPa	1412.7 ± 1.5
6720 kPa	1412.9 ± 1.5
6744 kPa	1413.1 ± 1.5
6772 kPa	1413.3 ± 1.5
6796 kPa	1413.4 ± 1.5
6820 kPa	1413.5 ± 1.5
6845 kPa	1413.6 ± 1.5
6881 kPa	1414 ± 1.5
6909 kPa	1414.1 ± 1.5
6937 kPa	1414.3 ± 1.5
6974 kPa	1414.4 ± 1.5
7006 kPa	1414.7 ± 1.5
7030 kPa	1414.8 ± 1.5
7056 kPa	1415 ± 1.5
7077 kPa	1415.1 ± 1.5
7110 kPa	1415.2 ± 1.5
7138 kPa	1415.5 ± 1.5
7171 kPa	1415.7 ± 1.5
7192 kPa	1415.8 ± 1.5
7216 kPa	1416 ± 1.5
7441 kPa	1417.3 ± 1.5
7474 kPa	1417.5 ± 1.5
7507 kPa	1417.7 ± 1.5
7536 kPa	1417.9 ± 1.5
7570 kPa	1418.2 ± 1.5
7599 kPa	1418.3 ± 1.5
7628 kPa	1418.5 ± 1.5
7669 kPa	1418.7 ± 1.5
7702 kPa	1418.8 ± 1.5
7727 kPa	1419 ± 1.5
7762 kPa	1419.2 ± 1.5
7795 kPa	1419.4 ± 1.5
7821 kPa	1419.5 ± 1.5
7850 kPa	1419.8 ± 1.5
7879 kPa	1420 ± 1.5
7912 kPa	1420.3 ± 1.5
7941 kPa	1420.4 ± 1.5
7970 kPa	1420.6 ± 1.5
8008 kPa	1420.7 ± 1.5
8033 kPa	1421 ± 1.5
